Measurements: US20250101019A1 (Insilico Medicine IP Limited, priority 2022, published 2025)

Key:
[1] = target: T1, ENPP1 (Homo sapiens (Human), UniProt P22413); experiment: cGAMP-Glo enzymatic assay (2′3′-cGAMP substrate, AMP-Glo readout); format: biochemical; details: substrate 2′3′-cGAMP; 25° C. for 60 min; 50 mM Tris pH 8.8
Method in brief: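 Human ENPP1 incubated with compound (11-point, 3-fold series) and either ATP or 2′3′-cGAMP substrate for 60 min at 25 °C in 50 mM Tris pH 8.8, 250 mM NaCl, 0.1% BSA. AMP produced detected by AMP-Glo then kinase detection reagent, 1 h each at 25 °C, read as luminescence.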

[2] = target: T1, ENPP1; experiment: ATP-Glo enzymatic assay (ATP substrate, AMP-Glo readout); format: biochemical; details: 25° C. for 60 min, 50 mM Tris pH 8.8

T1 sequence (P22413 whole entry, species assumed): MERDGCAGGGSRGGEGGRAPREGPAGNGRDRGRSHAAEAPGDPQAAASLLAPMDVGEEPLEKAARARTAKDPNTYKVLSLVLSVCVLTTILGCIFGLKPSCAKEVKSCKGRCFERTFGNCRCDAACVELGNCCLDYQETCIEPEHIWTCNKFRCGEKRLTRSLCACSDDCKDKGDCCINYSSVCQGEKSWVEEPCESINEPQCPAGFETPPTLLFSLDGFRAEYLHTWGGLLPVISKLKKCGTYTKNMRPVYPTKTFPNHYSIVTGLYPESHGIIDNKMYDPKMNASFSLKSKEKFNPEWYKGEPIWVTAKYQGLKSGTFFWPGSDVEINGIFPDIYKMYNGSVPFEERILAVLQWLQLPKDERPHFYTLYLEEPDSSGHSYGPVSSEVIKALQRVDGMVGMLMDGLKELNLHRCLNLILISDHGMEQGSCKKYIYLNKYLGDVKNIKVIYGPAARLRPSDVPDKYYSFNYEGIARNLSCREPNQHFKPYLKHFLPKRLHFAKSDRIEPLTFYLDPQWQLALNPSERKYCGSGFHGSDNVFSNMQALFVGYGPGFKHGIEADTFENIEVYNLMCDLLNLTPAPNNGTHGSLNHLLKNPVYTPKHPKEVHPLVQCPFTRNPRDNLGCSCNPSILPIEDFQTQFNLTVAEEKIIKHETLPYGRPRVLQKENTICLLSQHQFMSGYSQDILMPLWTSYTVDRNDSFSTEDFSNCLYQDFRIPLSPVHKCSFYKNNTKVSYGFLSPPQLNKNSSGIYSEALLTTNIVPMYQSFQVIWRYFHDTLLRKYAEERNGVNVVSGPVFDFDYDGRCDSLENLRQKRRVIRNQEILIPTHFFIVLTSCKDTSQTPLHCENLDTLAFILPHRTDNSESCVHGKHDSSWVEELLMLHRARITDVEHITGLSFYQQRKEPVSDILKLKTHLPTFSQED

Row | IC50 [1] | IC50 [2] | Structure (SMILES)
1 | < 1 nM | < 1 nM | COc1ncc2nc(C(F)F)n(Cc3ccc(S(N)(=O)=O)cn3)c2c1-c1ccccc1 [Example 75, 6-((2-(difluoromethyl)-6-methoxy-7-phenyl-1H-imidazo[4,5-c]pyridin-1-yl)methyl)pyridine-3-sulfonamide]
2 | < 1 nM | < 1 nM | COc1ncc2nc(C(F)F)n(Cc3ncc(S(N)(=O)=O)cc3F)c2c1-c1ccccc1 [Example 76, 6-((2-(difluoromethyl)-6-methoxy-7-phenyl-1H-imidazo[4,5-c]pyridin-1-yl)methyl)-5-fluoropyridine-3-sulfonamide]
3 | < 1 nM | < 1 nM | COc1ncc2nc(C(F)(F)F)n(Cc3ccc(S(N)(=O)=O)cn3)c2c1-c1ccccc1 [Example 77]
4 | < 1 nM | < 1 nM | COc1ncc2nc(C(F)(F)F)n(Cc3ncc(S(N)(=O)=O)cc3F)c2c1-c1ccccc1 [Example 78, 5-fluoro-6-((6-methoxy-7-phenyl-2-(trifluoromethyl)-1H-imidazo[4,5-c]pyridin-1-yl)methyl)pyridine-3-sulfonamide]
5 | < 1 nM | < 1 nM | Cc1ncc2c(c1-c1ccccc1)n(Cc1ncc(S(N)(=O)=O)cc1F)c(=O)n2C [Example 79, 6-((3,6-dimethyl-2-oxo-7-phenyl-2,3-dihydro-1H-imidazo[4,5-c]pyridin-1-yl)methyl)-5-fluoropyridine-3-sulfonamide]
6 | < 1 nM | < 1 nM | COc1ncc2c(c1-c1ccccc1)n(Cc1ncc(S(N)(=O)=O)cc1F)c(=O)n2C [Example 80, 5-fluoro-6-((6-methoxy-3-methyl-2-oxo-7-phenyl-2,3-dihydro-1H-imidazo[4,5-c]pyridin-1-yl)methyl)pyridine-3-sulfonamide]
7 | < 1 nM | < 1 nM | Cc1ncc2c(c1-c1ccccc1)n(Cc1ccc(S(N)(=O)=O)cn1)c(=O)n2C [Example 81, 6-((3,6-dimethyl-2-oxo-7-phenyl-2,3-dihydro-1H-imidazo[4,5-c]pyridin-1-yl)methyl)pyridine-3-sulfonamide]
8 | < 1 nM | < 1 nM | COc1ncc2c(c1-c1ccccc1)n(Cc1ccc(S(N)(=O)=O)cn1)c(=O)n2C [Example 82, 6-((6-methoxy-3-methyl-2-oxo-7-phenyl-2,3-dihydro-1H-imidazo[4,5-c]pyridin-1-yl)methyl)pyridine-3-sulfonamide]
9 | < 1 nM | < 1 nM | [2H]C([2H])([2H])Oc1ncc2nc(C)n(Cc3ccc(S(N)(=O)=O)cc3)c2c1-c1ccccc1 [Example 84, 4-((6-(methoxy-d3)-2-methyl-7-phenyl-1H-imidazo[4,5-c]pyridin-1-yl)methyl)benzenesulfonamide]
10 | < 1 nM | < 1 nM | [2H]C([2H])([2H])Oc1ncc2nc(C)n(Cc3ncc(S(N)(=O)=O)cc3F)c2c1-c1ccccc1 [Example 85, 5-fluoro-6-((6-(methoxy-d3)-2-methyl-7-phenyl-1H-imidazo[4,5-c]pyridin-1-yl)methyl)pyridine-3-sulfonamide]
11 | < 1 nM | < 1 nM | [2H]C([2H])([2H])Oc1ncc2nc(C(F)F)n(Cc3ncc(S(N)(=O)=O)cc3F)c2c1-c1ccccc1 [Example 86, 6-((2-(difluoromethyl)-6-(methoxy-d3)-7-phenyl-1H-imidazo[4,5-c]pyridin-1-yl)methyl)-5-fluoropyridine-3-sulfonamide]
